Several values for one entry are separate records, joined by “and”; a condition that tells them apart may be missing. Equal entries are not always repeated. Where two headings read alike, the source gives them in different places.
Assays:
[1] = design: method as in PMID 15863696; conditions: cited from earlier work
HCT-116 = assay: MTT cytotoxicity assay, HCT-116; assay type: cell-based; conditions: Homo sapiens, 24 h treatment, mean ± SD of triplicate
Protocol: (§1) Subsequently, 100 µL of dimethyl sulfoxide was introduced to dissolve the insoluble formazan.

MDA-MB-231 = assay: MTT cytotoxicity assay, MDA-MB-231; assay type: cell-based; conditions: Homo sapiens, 24 h treatment, mean ± SD of triplicate
Protocol: as §1

HeLa = assay: MTT cytotoxicity assay, HeLa; assay type: cell-based; conditions: Homo sapiens, 24 h treatment, mean ± SD of triplicate
Protocol: as §1

MCF-7 [2] = assay: MTT cytotoxicity assay, MCF-7; assay type: cell-based, human; conditions: Homo sapiens, MCF7, 24 h, 24 h treatment, mean ± SD of triplicate
Protocol: as §1

[3] = MTT cytotoxicity assay, normal cell line WI-38; assay type: cell-based, human; conditions: human, WI-38 cells (normal human lung fibroblasts), normal (non-cancer) cell line, 24 h treatment
Protocol: as §1

WI-38 = assay: MTT cytotoxicity assay, normal cell line WI-38; assay type: cell-based, human; conditions: normal (non-cancer) cell line, 24 h treatment
Protocol: as §1

[4] = system: HCT-116, MDA-MB-231, HeLa, and MCF-7; assay: MTT cytotoxicity assay, ranges stated over several cell lines; assay type: cell-based; conditions: Homo sapiens
Protocol: as §1

[5] = target: T1, aromatase (CYP19A, EC 1.14.14.14) (Homo sapiens, UniProt P11511); assay: biochemical
T1 construct: Microsomal samples were isolated from tissue using the Microsome Isolation Kit; tissue BioVision K983-100; host or cells: microsomes from an unnamed tissue
T1 sequence (P11511 1-503): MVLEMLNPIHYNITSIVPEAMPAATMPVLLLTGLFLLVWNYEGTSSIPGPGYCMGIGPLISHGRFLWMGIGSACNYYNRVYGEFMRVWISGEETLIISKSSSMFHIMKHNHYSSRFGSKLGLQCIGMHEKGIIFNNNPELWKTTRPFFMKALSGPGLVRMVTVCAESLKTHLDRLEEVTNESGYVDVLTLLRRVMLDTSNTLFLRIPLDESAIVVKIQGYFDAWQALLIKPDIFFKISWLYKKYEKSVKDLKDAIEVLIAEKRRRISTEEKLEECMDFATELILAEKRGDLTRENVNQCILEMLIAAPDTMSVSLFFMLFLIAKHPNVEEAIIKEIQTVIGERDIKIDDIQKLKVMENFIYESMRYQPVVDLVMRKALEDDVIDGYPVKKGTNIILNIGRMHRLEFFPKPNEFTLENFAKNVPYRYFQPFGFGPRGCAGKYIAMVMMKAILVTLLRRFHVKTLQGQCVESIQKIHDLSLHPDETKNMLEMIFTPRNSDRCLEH
Protocol: In vitro aromatase assay was performed using the BioVision Aromatase Activity Assay Kit (Catalog # K983-100; BioVision, Milpitas, CA, USA). Microsomal samples were isolated from tissue using the Microsome Isolation Kit (Cat. #K249; BioVision, Milpitas, CA, USA). A standard curve was established by diluting the Fluorescence Standard provided in the kit to create a 0.5 pmole/µL solution, followed by setting up a series of standards in a white 96-well plate, adjusting the total volume to 100 µL with aromatase assay buffer. For each reaction well, a 2X concentrated mix was prepared by adding 2–48 µL of the microsomal sample and 2 µL of the NADPH generating system, bringing the final volume to 50 µL with aromatase assay buffer. Background controls (no enzyme) and positive controls (with recombinant aromatase) were included. […] After a 10 min incubation at 37 °C, 30 µL of the substrate/NADP+ mixture was added to each well, and fluorescence was measured immediately in kinetic mode for 60 min at 37 °C. Finally, the change in fluorescence was calculated to determine the specific activity of aromatase using the formula provided in the kit protocol.

MCF-7 [6] = assay: In vitro anti-estrogenic activity assay, MCF-7
MCF-7a = assay: In vitro anti-estrogenic activity assay, MCF-7a
EGFR = EGFR (Homo sapiens, UniProt P00533); assay: In vitro protein kinase inhibition assay (ELISA kit), EGFR
Sequence of EGFR (P00533 25-1210): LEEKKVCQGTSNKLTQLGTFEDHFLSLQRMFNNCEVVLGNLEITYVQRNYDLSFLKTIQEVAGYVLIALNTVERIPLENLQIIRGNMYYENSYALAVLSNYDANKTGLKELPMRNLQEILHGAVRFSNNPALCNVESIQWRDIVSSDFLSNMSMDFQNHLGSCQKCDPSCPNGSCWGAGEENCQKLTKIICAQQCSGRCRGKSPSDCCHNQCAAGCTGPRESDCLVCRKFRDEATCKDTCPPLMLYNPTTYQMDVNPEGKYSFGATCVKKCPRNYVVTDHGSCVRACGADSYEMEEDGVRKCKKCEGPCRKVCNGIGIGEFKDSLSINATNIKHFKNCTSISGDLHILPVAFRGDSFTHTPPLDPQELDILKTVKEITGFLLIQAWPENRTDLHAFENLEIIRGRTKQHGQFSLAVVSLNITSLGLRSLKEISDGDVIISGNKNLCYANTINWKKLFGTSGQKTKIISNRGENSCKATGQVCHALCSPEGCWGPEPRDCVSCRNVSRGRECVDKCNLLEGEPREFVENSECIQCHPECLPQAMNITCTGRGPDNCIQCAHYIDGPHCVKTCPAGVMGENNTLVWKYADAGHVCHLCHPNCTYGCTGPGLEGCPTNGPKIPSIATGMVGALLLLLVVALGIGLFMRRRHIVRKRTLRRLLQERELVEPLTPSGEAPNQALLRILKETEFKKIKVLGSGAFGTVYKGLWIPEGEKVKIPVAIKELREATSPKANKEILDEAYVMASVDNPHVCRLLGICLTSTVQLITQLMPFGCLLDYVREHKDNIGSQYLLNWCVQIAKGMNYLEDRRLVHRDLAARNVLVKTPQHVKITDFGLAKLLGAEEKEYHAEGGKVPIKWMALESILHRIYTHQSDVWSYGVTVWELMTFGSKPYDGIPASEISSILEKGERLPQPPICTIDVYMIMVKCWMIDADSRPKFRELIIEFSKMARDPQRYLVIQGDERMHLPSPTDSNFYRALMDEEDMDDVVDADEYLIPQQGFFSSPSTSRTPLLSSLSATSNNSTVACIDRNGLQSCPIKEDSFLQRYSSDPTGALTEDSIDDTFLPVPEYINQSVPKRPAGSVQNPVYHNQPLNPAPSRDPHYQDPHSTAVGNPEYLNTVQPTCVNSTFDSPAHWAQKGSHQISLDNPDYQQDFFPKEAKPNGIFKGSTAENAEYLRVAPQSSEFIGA

HER2 = HER2 (Homo sapiens, UniProt P04626); assay: In vitro protein kinase inhibition assay (ELISA kit), HER2
Sequence of HER2 (P04626 23-1255): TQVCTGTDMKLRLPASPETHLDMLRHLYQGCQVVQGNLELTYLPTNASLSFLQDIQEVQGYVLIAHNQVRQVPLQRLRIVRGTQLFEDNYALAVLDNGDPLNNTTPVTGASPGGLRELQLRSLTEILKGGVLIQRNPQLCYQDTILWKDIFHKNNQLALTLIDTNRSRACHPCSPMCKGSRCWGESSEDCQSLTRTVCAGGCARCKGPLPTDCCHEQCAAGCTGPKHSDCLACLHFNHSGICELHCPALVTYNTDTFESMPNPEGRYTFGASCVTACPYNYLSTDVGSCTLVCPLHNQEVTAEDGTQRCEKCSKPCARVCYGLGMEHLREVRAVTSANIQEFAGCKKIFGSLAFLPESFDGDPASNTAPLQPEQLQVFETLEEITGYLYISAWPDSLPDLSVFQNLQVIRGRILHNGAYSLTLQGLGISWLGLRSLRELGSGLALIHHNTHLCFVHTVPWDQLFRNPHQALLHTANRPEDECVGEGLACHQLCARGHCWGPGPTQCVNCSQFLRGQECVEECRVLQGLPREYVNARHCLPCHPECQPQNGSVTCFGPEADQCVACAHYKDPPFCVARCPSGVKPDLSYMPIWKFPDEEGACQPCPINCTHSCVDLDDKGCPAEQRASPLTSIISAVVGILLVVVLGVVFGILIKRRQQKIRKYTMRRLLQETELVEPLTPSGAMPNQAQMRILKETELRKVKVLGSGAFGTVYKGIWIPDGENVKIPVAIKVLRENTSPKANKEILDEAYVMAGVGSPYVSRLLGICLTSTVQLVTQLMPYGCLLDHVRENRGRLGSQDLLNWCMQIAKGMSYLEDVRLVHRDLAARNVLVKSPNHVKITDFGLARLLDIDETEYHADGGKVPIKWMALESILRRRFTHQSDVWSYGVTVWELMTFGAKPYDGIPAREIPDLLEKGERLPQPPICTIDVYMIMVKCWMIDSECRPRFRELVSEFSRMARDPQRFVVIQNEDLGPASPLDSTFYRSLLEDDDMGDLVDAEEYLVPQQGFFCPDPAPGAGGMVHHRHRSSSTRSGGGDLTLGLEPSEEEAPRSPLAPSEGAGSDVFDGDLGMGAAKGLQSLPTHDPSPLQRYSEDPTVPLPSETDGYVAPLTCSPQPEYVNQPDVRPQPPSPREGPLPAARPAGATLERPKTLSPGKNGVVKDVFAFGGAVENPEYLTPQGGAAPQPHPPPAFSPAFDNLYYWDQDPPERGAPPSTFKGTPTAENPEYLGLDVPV

CDK2 = CDK2 (Homo sapiens, UniProt P24941); assay: In vitro protein kinase inhibition assay (ELISA kit), CDK2
VEGFR-2 = VEGFR-2 (Homo sapiens, UniProt P35968); assay: In vitro protein kinase inhibition assay (ELISA kit), VEGFR-2
Sequence of VEGFR-2 (P35968 20-1356): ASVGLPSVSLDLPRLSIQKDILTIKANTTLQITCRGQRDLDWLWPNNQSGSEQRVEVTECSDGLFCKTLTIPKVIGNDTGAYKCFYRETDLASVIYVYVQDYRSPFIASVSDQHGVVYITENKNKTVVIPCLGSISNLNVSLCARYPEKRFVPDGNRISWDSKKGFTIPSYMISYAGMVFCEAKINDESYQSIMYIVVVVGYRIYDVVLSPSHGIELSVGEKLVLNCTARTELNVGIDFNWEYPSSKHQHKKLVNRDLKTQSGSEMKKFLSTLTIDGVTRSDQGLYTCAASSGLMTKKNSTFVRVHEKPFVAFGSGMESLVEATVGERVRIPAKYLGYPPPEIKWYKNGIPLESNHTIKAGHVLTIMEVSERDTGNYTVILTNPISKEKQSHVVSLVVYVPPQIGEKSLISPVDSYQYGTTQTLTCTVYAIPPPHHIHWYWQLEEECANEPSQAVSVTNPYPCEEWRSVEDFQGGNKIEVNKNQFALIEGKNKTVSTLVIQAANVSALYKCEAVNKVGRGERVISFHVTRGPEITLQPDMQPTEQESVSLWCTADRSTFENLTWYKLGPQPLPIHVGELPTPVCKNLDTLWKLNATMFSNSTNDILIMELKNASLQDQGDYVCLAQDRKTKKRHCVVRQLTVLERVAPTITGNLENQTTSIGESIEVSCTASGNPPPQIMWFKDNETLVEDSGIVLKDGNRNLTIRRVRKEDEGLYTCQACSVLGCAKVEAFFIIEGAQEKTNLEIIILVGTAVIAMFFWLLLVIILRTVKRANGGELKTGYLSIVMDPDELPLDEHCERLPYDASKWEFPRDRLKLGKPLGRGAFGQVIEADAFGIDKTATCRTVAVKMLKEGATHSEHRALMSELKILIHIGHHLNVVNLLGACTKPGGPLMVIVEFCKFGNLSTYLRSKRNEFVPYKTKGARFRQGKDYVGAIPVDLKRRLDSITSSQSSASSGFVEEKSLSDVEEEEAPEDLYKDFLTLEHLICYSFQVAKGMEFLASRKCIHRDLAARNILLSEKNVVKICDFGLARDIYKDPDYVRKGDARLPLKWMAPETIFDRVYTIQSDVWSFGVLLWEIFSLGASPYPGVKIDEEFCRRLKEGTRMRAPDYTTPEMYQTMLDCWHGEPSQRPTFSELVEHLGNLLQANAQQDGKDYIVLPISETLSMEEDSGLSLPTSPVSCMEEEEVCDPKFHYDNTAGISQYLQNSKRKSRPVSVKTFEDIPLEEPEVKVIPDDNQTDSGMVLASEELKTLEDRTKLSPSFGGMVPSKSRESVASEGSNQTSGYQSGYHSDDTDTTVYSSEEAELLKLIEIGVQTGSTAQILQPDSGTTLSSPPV

[7] = HCT-116, MDA-MB-231, HeLa, MCF-7, range, read-out: IC50 values, range over the cancer cell lines tested
[8] = cell count relative to the control (17β-E2)

O=C(/C=C/c1ccc(O)cc1)c1ccccc1 [4-hydroxychacone]
Concentration at which estrogenic activity is shown [1]: 0.0001 mol

COc1ccccc1/C=C/C(=O)c1ccccc1 [Compound 4c, (E)-3-(2-Methoxyphenyl)-1-phenylprop-2-en-1-one]
IC50 (HCT-116): 28.4 ± 1.8 µM
IC50 (MDA-MB-231): 35.9 ± 2.1 µM
IC50 (HeLa): 42.5 ± 2.5 µM
IC50 (MCF-7 [2]): 23.5 ± 1.6 µM
IC50 at 24 h [3]: 77.3 to 100 µM
IC50 (WI-38): > 100 µM
IC50 [4, 7]: 23.5 to 74.5 µM

COc1cccc(/C=C/C(=O)c2ccccc2)c1 [Compound 4d, (E)-3-(3-Methoxyphenyl)-1-phenylprop-2-en-1-one]
IC50 (HCT-116): 36 ± 2.2 µM
IC50 (MDA-MB-231): 43.6 ± 2.3 µM
IC50 (HeLa): 39.4 ± 2.3 µM
IC50 (MCF-7 [2]): 29.7 ± 1.9 µM
IC50 at 24 h [3]: 77.3 to 100 µM
IC50 (WI-38): 77.3 ± 3.8 µM
IC50 [4, 7]: 23.5 to 74.5 µM

COc1cc(/C=C/C(=O)c2ccccc2)ccc1OCc1ccccc1 [Compound 4t, (E)-3-(4-(Benzyloxy)-3-methoxyphenyl)-1-phenylprop-2-en-1-one]
IC50 (HCT-116): 68.9 ± 3.7 µM
IC50 (MDA-MB-231): 64.1 ± 3.8 µM
IC50 (HeLa): 59.3 ± 3.4 µM
IC50 (MCF-7 [2]): 55.6 ± 2.9 µM
IC50 at 24 h [3]: 40 to 40.1 µM
IC50 (WI-38): 40.1 ± 2.5 µM
IC50 [4, 7]: 55.6 to 82.8 µM

COc1cccc(C(=O)/C=C/c2ccc(OCc3ccccc3)c(OC)c2)c1 [Compound 4u, (E)-3-(4-(Benzyloxy)-3-methoxyphenyl)-1-(3-methoxyphenyl)prop-2-en-1-one]
IC50 (HCT-116): 95.3 ± 4.9 µM
IC50 (MDA-MB-231): > 100 µM
IC50 (HeLa): > 100 µM
IC50 (MCF-7 [2]): 82.8 ± 4.1 µM
IC50 at 24 h [3]: 40 to 40.1 µM
IC50 (WI-38): 39 ± 2.4 µM
IC50 [4, 7]: 55.6 to 82.8 µM

COc1ccc(C(=O)/C=C/c2ccc(OCc3ccccc3)c(OC)c2)cc1 [Compound 4v, (E)-3-(4-(Benzyloxy)-3-methoxyphenyl)-1-(4-methoxyphenyl)prop-2-en-1-one]
IC50 (HCT-116): 14.5 ± 1.1 µM
IC50 (MDA-MB-231): 10.2 ± 0.8 µM
IC50 (HeLa): 18.2 ± 1.5 µM
IC50 (MCF-7 [2]): 8.67 ± 0.6 µM
IC50 at 24 h [3]: 75.2 ± 3.9 µM
IC50 ([4]; HCT-116 and HeLa, range over the compounds named, read-out: IC50 values, range against HCT-116 and HeLa): 6.59 to 22.6 µM
IC50 ([4]; MDA-MB-231 and MCF-7, range over the compounds named, read-out: IC50 values, range against MDA-MB-231 and MCF-7): 2.08 to 13.6 µM
Inhibition (%) Aromatase ([5]; 0.01 µM, individual Data 1-3): 17% and 20%
Inhibition (%) Aromatase ([5]; 0.1 µM, individual Data 1-3): 36%
Inhibition (%) Aromatase ([5]; 1 µM, individual Data 1-3): 64% and 63%
Inhibition (%) Aromatase ([5]; 10 µM, individual Data 1-3): 84% and 87%
Inhibition (%) Aromatase ([5]; 100 µM, individual Data 1-3): 94% and 97%
IC50 ([5]; mean ± SD of triplicate, approximate values, read-out: Aromatase Inhibition IC50): 0.357 ± 0.012 µM
inhibition at 0.01 µM ([5]; read-out: Inhibition (%) Aromatase, 0.01 µM, individual Data 1-3): 18%
inhibition at 0.1 µM ([5]; read-out: Inhibition (%) Aromatase, 0.1 µM, individual Data 1-3): 34%
inhibition at 1 µM ([5]; read-out: Inhibition (%) Aromatase, 1 µM, individual Data 1-3): 66%
inhibition at 10 µM ([5]; read-out: Inhibition (%) Aromatase, 10 µM, individual Data 1-3): 85%
inhibition at 100 µM ([5]; read-out: Inhibition (%) Aromatase, 100 µM, individual Data 1-3): 95%
Cell Proliferation MCF-7 % (MCF-7 [6]; [8]): 73%
Cell Proliferation MCF-7 Cell Count (MCF-7 [6]; mean ± SD of triplicate): 13,611 ± 485
Reduction of growth/cell count (inhibition) in MCF-7 (MCF-7 [6]; relative to control): 27%
Cell Proliferation MCF-7a % (MCF-7a; [8]): 98%
Cell Proliferation MCF-7a Cell Count (MCF-7a; mean ± SD of triplicate): 20,397 ± 589
Inhibition in MCF-7a (MCF-7a; relative to control): 2%
IC50 (EGFR): 0.671 ± 0.022 µM
Inhibition (%) EGFR (EGFR; 0.01 µM, individual Data 1-3): 3.97% and 2.96% and 6%
Inhibition (%) EGFR (EGFR; 0.1 µM, individual Data 1-3): 28.6% and 31.2%
Inhibition (%) EGFR (EGFR; 1 µM, individual Data 1-3): 59.9% and 57.5%
Inhibition (%) EGFR (EGFR; 10 µM, individual Data 1-3): 82.3% and 86.7%
Inhibition (%) EGFR (EGFR; 100 µM, individual Data 1-3): 90.54% and 95%
inhibition at 0.1 µM (EGFR; read-out: Inhibition (%) EGFR, 0.1 µM, individual Data 1-3): 29.6%
inhibition at 1 µM (EGFR; read-out: Inhibition (%) EGFR, 1 µM, individual Data 1-3): 62.3%
inhibition at 10 µM (EGFR; read-out: Inhibition (%) EGFR, 10 µM, individual Data 1-3): 84.2%
inhibition at 100 µM (EGFR; read-out: Inhibition (%) EGFR, 100 µM, individual Data 1-3): 92.4%
IC50 (HER2): 1.57 ± 0.061 µM
Inhibition (%) Her2 (HER2; 0.01 µM, individual Data 1-3): 4.92% and 2.56% and 8.92%
Inhibition (%) Her2 (HER2; 0.1 µM, individual Data 1-3): 7.65% and 12.67%
Inhibition (%) Her2 (HER2; 1 µM, individual Data 1-3): 45.3% and 42.34%
Inhibition (%) Her2 (HER2; 10 µM, individual Data 1-3): 71.2% and 75.89%
Inhibition (%) Her2 (HER2; 100 µM, individual Data 1-3): 88.65% and 94.3%
inhibition at 0.1 µM (HER2; read-out: Inhibition (%) Her2, 0.1 µM, individual Data 1-3): 10.2%
inhibition at 1 µM (HER2; read-out: Inhibition (%) Her2, 1 µM, individual Data 1-3): 48.9%
inhibition at 10 µM (HER2; read-out: Inhibition (%) Her2, 10 µM, individual Data 1-3): 74.7%
inhibition at 100 µM (HER2; read-out: Inhibition (%) Her2, 100 µM, individual Data 1-3): 91.6%
IC50 (CDK2): 1.03 ± 0.032 µM
Inhibition (%) CDK2 (CDK2; 0.01 µM, individual Data 1-3): 5.2% and 8.6%
Inhibition (%) CDK2 (CDK2; 0.1 µM, individual Data 1-3): 18.3% and 24.97%
Inhibition (%) CDK2 (CDK2; 1 µM, individual Data 1-3): 47.4% and 43.2%
Inhibition (%) CDK2 (CDK2; 10 µM, individual Data 1-3): 76.2% and 84.1%
Inhibition (%) CDK2 (CDK2; 100 µM, individual Data 1-3): 89.1% and 95.3%
inhibition at 0.01 µM (CDK2; read-out: Inhibition (%) CDK2, 0.01 µM, individual Data 1-3): 6.58%
inhibition at 0.1 µM (CDK2; read-out: Inhibition (%) CDK2, 0.1 µM, individual Data 1-3): 22.9%
inhibition at 1 µM (CDK2; read-out: Inhibition (%) CDK2, 1 µM, individual Data 1-3): 51.2%
inhibition at 10 µM (CDK2; read-out: Inhibition (%) CDK2, 10 µM, individual Data 1-3): 79.3%
inhibition at 100 µM (CDK2; read-out: Inhibition (%) CDK2, 100 µM, individual Data 1-3): 92.3%
IC50 (VEGFR-2): 1.82 ± 0.062 µM
Inhibition (%) VEGFR2 (VEGFR-2; 0.01 µM, individual Data 1-3): 5.43% and 9.43%
Inhibition (%) VEGFR2 (VEGFR-2; 0.1 µM, individual Data 1-3): 15% and 21.8%
Inhibition (%) VEGFR2 (VEGFR-2; 1 µM, individual Data 1-3): 36.9% and 34.2%
Inhibition (%) VEGFR2 (VEGFR-2; 10 µM, individual Data 1-3): 67.26% and 74.3%
Inhibition (%) VEGFR2 (VEGFR-2; 100 µM, individual Data 1-3): 86% and 93.4%
inhibition at 0.01 µM (VEGFR-2; read-out: Inhibition (%) VEGFR2, 0.01 µM, individual Data 1-3): 7.43%
inhibition at 0.1 µM (VEGFR-2; read-out: Inhibition (%) VEGFR2, 0.1 µM, individual Data 1-3): 18.1%
inhibition at 1 µM (VEGFR-2; read-out: Inhibition (%) VEGFR2, 1 µM, individual Data 1-3): 39%
inhibition at 10 µM (VEGFR-2; read-out: Inhibition (%) VEGFR2, 10 µM, individual Data 1-3): 70.2%
inhibition at 100 µM (VEGFR-2; read-out: Inhibition (%) VEGFR2, 100 µM, individual Data 1-3): 89.2%

From paper PMC11766267 (International Journal of Molecular Sciences, 2025)
